# Measurements published in article PMC5511785 (Journal of pharmaceutical sciences, 2017).
# Read-outs that look alike come from different tables or passages of the source.
# Key:
# OATP1B3 [1] = assay: Immunoblot of total OATP1B3 protein in HEK293-OATP1B3 cells; assay type: cell-based, human; settings: 10 μM, 1 h
# [2] = system: HEK293-OATP1B1 and -1B3 cells; settings: 1 h treatment; rifampicin up to 25 μM, dasatinib up to 20 μM
# OATP1B1 [3] = target: T1, OATP1B1 (Homo sapiens, UniProt Q9Y6L6); assay: cell-based; settings: [3H]-E217βG 1 μM, 2 min, HEK293-OATP1B1
# T1 sequence (Q9Y6L6 1-691): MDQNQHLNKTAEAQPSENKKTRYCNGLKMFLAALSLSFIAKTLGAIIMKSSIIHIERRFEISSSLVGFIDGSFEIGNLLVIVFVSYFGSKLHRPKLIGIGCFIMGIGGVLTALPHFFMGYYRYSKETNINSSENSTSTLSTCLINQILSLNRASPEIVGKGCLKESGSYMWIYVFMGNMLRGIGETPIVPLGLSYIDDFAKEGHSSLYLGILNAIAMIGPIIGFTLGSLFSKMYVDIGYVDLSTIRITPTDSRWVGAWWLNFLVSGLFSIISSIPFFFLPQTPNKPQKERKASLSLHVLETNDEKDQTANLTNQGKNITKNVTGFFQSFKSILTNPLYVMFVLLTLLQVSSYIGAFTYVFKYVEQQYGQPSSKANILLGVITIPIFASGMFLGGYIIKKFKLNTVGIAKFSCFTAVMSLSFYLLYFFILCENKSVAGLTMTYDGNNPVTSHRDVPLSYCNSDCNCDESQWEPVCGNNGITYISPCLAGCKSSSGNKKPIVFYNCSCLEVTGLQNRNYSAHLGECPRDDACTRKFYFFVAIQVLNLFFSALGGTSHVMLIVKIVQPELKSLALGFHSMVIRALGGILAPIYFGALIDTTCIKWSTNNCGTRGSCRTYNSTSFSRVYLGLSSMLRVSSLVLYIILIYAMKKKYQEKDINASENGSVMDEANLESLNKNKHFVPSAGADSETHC
# [4] = cited from earlier work
# [5] = co-administration of dasatinib with simvastatin; cited from earlier work
# OATP1B1 [6] = settings: co-incubation with 10 μM; cited from earlier work
# GFP-OATP1B3 [7] = assay type: cell-based, human
# [8] = cited from earlier work; remark: listed apart in the source
# OATP1B1 [9] = target: T1, OATP1B1
# GFP-OATP1B1 [10] = assay type: cell-based, human
# OATP1B1 [11] = assay: Immunoblot of total OATP1B1 protein in HEK293-OATP1B1 cells; assay type: cell-based, human; settings: 10 μM, 1 h
# GFP-OATP1B1 [12] = target: T2, GFP-OATP1B1 (Homo sapiens, UniProt Q9Y6L6); assay: [3H]-E217βG accumulation in HEK293-GFP-OATP1B1 cells
# T2 sequence (Q9Y6L6 1-691): T1 sequence (Q9Y6L6 1-691)
# GFP-OATP1B3 [13] = target: T3, GFP-OATP1B3 (Homo sapiens, UniProt Q9NPD5); assay: [3H]-E217βG accumulation in HEK293-GFP-OATP1B3 cells
# T3 sequence (Q9NPD5 1-702): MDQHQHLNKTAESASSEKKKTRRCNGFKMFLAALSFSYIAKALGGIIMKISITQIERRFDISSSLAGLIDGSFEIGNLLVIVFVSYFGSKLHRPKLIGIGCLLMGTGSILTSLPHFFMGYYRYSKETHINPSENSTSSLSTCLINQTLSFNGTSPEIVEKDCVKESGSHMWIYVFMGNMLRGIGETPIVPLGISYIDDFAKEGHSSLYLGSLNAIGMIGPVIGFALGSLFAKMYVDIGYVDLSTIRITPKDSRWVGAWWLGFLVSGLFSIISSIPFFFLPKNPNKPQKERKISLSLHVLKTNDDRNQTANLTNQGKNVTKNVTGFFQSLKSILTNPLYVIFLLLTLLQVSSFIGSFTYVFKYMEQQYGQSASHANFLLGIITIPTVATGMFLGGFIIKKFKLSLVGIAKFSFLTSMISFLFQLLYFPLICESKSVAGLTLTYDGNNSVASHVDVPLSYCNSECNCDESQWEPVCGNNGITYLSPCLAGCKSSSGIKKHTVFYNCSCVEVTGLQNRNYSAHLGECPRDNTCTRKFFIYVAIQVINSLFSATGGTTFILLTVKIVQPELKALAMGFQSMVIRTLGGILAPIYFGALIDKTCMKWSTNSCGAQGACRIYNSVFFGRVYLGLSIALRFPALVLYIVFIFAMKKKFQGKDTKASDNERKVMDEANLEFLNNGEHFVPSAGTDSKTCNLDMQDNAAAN
# OATP1B3 [14] = target: T4, OATP1B3 (Homo sapiens, UniProt Q9NPD5)
# T4 sequence (Q9NPD5 1-702): T3 sequence (Q9NPD5 1-702)
# OATP1B1 [15] = target: T1, OATP1B1; assay: OATP1B1-mediated [3H]-E1S accumulation; assay type: cell-based; settings: 1 μM, 30 min or 1 h
# OATP1B1 [16] = settings: 1–25 μM; cited from earlier work
# OATP1B1 [17] = target: T1, OATP1B1; assay: OATP1B1-mediated [3H]-pitavastatin accumulation; assay type: cell-based; settings: 10 μM, 1 h pre-incubation
# OATP1B3 [18] = target: T4, OATP1B3; assay: cell-based; settings: [3H]-E217βG 1 μM, 2 min, HEK293-OATP1B3
# [19] = Estimated maximum unbound inhibitor concentration at the inlet to the liver; parameters: species or system human; settings: Supplemental Table S2
# [20] = IC50, co-incubation, without pretreatment
# [21] = IC50, pre+co-incubation (1 h pretreatment)
# [22] = 20 μM, up to at least 1 h (data not shown)
# [23] = substrate kinetics, vehicle control pretreatment, mean ± SD, n=3
# [24] = unlabeled E217βG 1–30 μM, 0.5 and 1 h
smiles,measurement,setting,value
Cc1nc(Nc2ncc(C(=O)Nc3c(C)cccc3Cl)s2)cc(N2CCN(CCO)CC2)n1 [Dasatinib],Total protein level of OATP1B3 vs vehicle control,OATP1B3 [1],similar
same,LDH cytotoxicity,[2],negligible toxicity
same,IC50,OATP1B1 [3]; [20],4810 ± 1700 nM
same,IC50,OATP1B1 [3]; [21],2330 ± 860 nM
same,ka,[4]; first-order absorption rate constant,6 h⁻¹
same,fa,"[4]; fraction available for absorption from dosage form, meta-analysis",0.781
same,Vss,[4]; from allometric scaling,4.2 L/kg
same,CLPO,[4]; observed value (CV% 106.5),449.4 L/h
same,CLR,[4]; observed value,0.4 L/h
same,Increase of AUC of simvastatin,[5],20%
same,Increase of AUC of simvastatin acid,[5],27%
same,Decrease of OATP1B1-mediated [3H]-E217βG transport,OATP1B1 [6],~ 70%
same,Plasma membrane localization of GFP-OATP1B3,GFP-OATP1B3 [7]; [22],did not cause an obvious change
same,pKa1,[8],6.8
same,pKa2,[8],10.8
same,Log PO:W,[8]; neutral species octanol:buffer partition coefficient,1.8
same,Effect of pretreatment on OATP1B1-mediated [3H]-E217βG accumulation,OATP1B1 [9]; 5 - 20 μM for 0.5 and 1 h,significantly decreased
same,Plasma membrane localization of GFP-OATP1B1,GFP-OATP1B1 [10]; [22],did not cause an obvious change
same,Total protein level of OATP1B1 vs vehicle control,OATP1B1 [11],similar
"C[C@]12CC[C@@H]3c4ccc(O)cc4CC[C@H]3[C@@H]1CC[C@@H]2O[C@@H]1O[C@H](C(=O)O)[C@@H](O)[C@H](O)[C@H]1O [E217βG, estradiol 17β-D-glucuronide]",[3H]-E217βG accumulation vs HEK293-Mock cells,"GFP-OATP1B1 [12]; 1 μM, 2 min, HEK293-GFP-OATP1B1 (data not shown)",390 fold
same,[3H]-E217βG accumulation vs HEK293-Mock cells,"GFP-OATP1B3 [13]; 1 μM, 2 min, HEK293-GFP-OATP1B3 (data not shown)",~ 34 fold
same,Vmax of E217βG transport mediated by OATP1B1,OATP1B1 [9]; [23],55.2 ± 1.6 pmol/mg protein/min
same,Effect of pretreatment on OATP1B1-mediated transport of [3H]-E217βG,OATP1B1 [9]; [24],only slightly decreases or has no effect
same,Vmax of E217βG transport mediated by OATP1B3,OATP1B3 [14]; [23],15.8 ± 1.6 pmol/mg protein/min
same,Effect of pretreatment on OATP1B3-mediated transport of [3H]-E217βG,OATP1B3 [14]; [24],only slightly decreases or has no effect
CO[C@H]1/C=C/O[C@@]2(C)Oc3c(C)c(O)c4c(O)c(c(/C=N/N5CCN(C)CC5)c(O)c4c3C2=O)NC(=O)/C(C)=C\C=C\[C@H](C)[C@H](O)[C@@H](C)[C@@H](O)[C@@H](C)[C@H](OC(C)=O)[C@@H]1C [Rifampicin],Effect of pretreatment on OATP1B1-mediated [3H]-E1S transport,OATP1B1 [15],did not affect
same,Total protein level of OATP1B3 vs vehicle control,OATP1B3 [1],similar
same,Effect of pretreatment on [3H]-E217βG accumulation in HEK293-GFP-OATP1B1,GFP-OATP1B1 [12]; 10 μM for 0.5 and 1 h,significantly decreased
same,IC50,OATP1B1 [3]; [20],740 ± 80 nM
same,IC50,OATP1B1 [3]; [21],240 ± 30 nM
same,Effect of pretreatment on [3H]-E217βG accumulation in HEK293-GFP-OATP1B3,GFP-OATP1B3 [13]; 10 μM for 0.5 and 1 h,significantly decreased
same,Effect of pre-incubation on OATP1B1-mediated [3H]-E1S transport,OATP1B1 [16],did not significantly affect
same,Effect of pre-incubation on OATP1B1-mediated [3H]-pitavastatin accumulation,OATP1B1 [17],significantly decreased
same,IC50,OATP1B3 [18]; [20],260 ± 30 nM
same,IC50,OATP1B3 [18]; [21],100 ± 10 nM
same,Plasma membrane localization of GFP-OATP1B3,"GFP-OATP1B3 [7]; 10 μM, 1–61 min",primarily localized at the plasma membrane
same,Effect of pre-incubation on OATP1B1-mediated [3H]-E217βG transport,"OATP1B1 [9]; 1 – 25 μM for 0.5 h and 0.5 – 25 μM for 1 h, washed",significantly decreased
same,Change of Km of OATP1B1-mediated E217βG transport vs control,"OATP1B1 [9]; pretreatment 10 μM, 1 h",~ 1.5 fold
same,Decrease of Vmax of OATP1B1-mediated E217βG transport vs control,"OATP1B1 [9]; pretreatment 10 μM, 1 h",~ 3.5 fold
same,"Maximum possible unbound concentration at the inlet to the liver (Iu,in,max)",[19],10.7 µM
same,Plasma membrane localization of GFP-OATP1B1,"GFP-OATP1B1 [10]; 10 μM, 1–61 min",primarily localized at the plasma membrane
same,Total protein level of OATP1B1 vs vehicle control,OATP1B1 [11],similar
